In patent US20190160089A1, “COMBINATION TREATMENT WITH ANTIBODY-DRUG CONJUGATES AND CYTARABINE” (IMMUNOGEN, INC., priority 2017, published 2019):

Assays:
[1] = tested on: MV4-11 cells, a human AML cell line; test: In vivo efficacy in MV4-11 disseminated xenograft model; design: species or system mice; details: cytarabine alone 75 mg/kg QD×5 days 24-28
Experimental: (§1) The measured end-point was survival. […] Spontaneous deaths were recorded when they were discovered. For disseminated models, Tumor Growth Delay is calculated as T−C, where T is the median survival time (in days) of a treated group and C is the median survival time (in days) of the vehicle control group. The Percent Increased Life Span (% ILS) for disseminated models is calculated using the following formula: % ILS=(T−C)/C×100%.
The cyclophosphamide (Sigma, C0768, Lot # MKBX1822V) was dissolved in 0.9% NaCl and was administered intraperitoneally to the mice on day −3 and day −2 prior to MV4-11 cell inoculation.
Following cyclophosphamide treatment as described above, the mice were each injected intravenously in the lateral tail vein with 3×10^6 MV4-11 cells, a human AML cell line, in 100 μl of serum-free medium on day 0 in the study.
Cytarabine was given once a day (QD) at a dose of 75 mg/kg for five consecutive days (×5) and always administered on the same fixed set of days in the study time line: days 24, 25, 26, 27 and 28.
Lastly, Group K received QW×3 dosing of 1 μg/kg by DGN462 (0.0556 mg/kg by antibody) of a non-targeted control conjugate, Ab-DGN462, on a day 21, 28 and 35 dosing schedule (“Day 21”, with FcR blocking).

[2] = tested on: Molm-13 cells, a human AML cell line; test: In vivo efficacy in Molm-13 disseminated xenograft model; design: species or system mice; details: cytarabine alone 75 mg/kg QD×5 days 7-11
Experimental: as §1
The cyclophosphamide (Sigma, C0768, Lot # MKBX1822V) was dissolved in 0.9% NaCl and was administered intraperitoneally to the mice on day −2 prior to Molm-13 cell inoculation on day 0.
Following cyclophosphamide treatment as described above, the mice were each injected intravenously in the lateral tail vein with 2×10^5 Molm-13 cells, a human AML cell line, in 100 μl of serum-free medium on day 0 in the study.
Cytarabine, in contrast, was given once a day (QD) at a dose of 75 mg/kg for five consecutive days (×5) and always on a fixed set of days in the study time line: Days 7, 8, 9, 10 and 11.
The results are represented in Table 5 (below) and in FIG. 3.

[3] = tested on: MOLM-13; test: In vitro CD33 expression post-treatment with cytarabine (flow cytometry, PE anti-CD33); type: cell-based, human; details: cytarabine 400 nM, 15, 24, 39, 48 hours post-treatment
Experimental: (§2) CD33 expression was assessed post-treatment with cytarabine. In these experiments, two AML cell lines with cell surface display of CD33 and cytarabine sensitivity were used: MV4-11 and MOLM-13. The potency-relative doses were chosen for each treatment, relative to IC50s generated from 96-hour cytotoxicity assays. […] Time points at 15 hours, 24 hours, 39 hours, and 48 hours post-treatment with cytarabine were chosen for cell surface CD33 assessment. Cells were stained with, then washed of excess, PE-conjugated anti-CD33 mAb. Flow cytometric analyses of PE MFI were run on a FACSCanto II flow cytometer. PE-MFIs at each timepoint were normalized to PE-MFIs of untreated control samples and normalized PE-MFIs were considered to represent relative fold-changes in surface CD33 binding sites.

[4] = tested on: MV4-11; test: as above; type: cell-based, human; details: cytarabine 2,500 nM, 15, 24, 39, 48 hours post-treatment
Experimental: as §2

[5] = tested on: EOL-1 cells, a human AML cell line; test: In vivo efficacy in EOL-1 subcutaneous xenograft model; details: EOL-1 sc xenograft; IMGN779 5 μg/kg day 10; cytarabine 75 mg/kg days 10-14; text: long-term CRs on day 90
Experimental: The mice were weighed twice a week and were monitored for clinical signs throughout the duration of the study. Animals were euthanized when hind leg paralysis was present, body weight decreased by >20% of pre-treatment weight, tumor ulceration occurred, or when any signs of distress were visible. Tumor volumes were measured one to two times weekly in three dimensions using a caliper. […] Tumor Growth Inhibition (T/C Value) was also assessed using the following formula: T/C (%)=(Median tumor volume of the treated/Median tumor volume of the control)×100%. Tumor volume was determined simultaneously for the treated (T) and the vehicle control (C) groups when tumor volume of the vehicle control reached a predetermined size (Bissery et al., Cancer Res. 51: 4845-52 (1991). The daily median tumor volume of each treated group was determined, including tumor-free mice (0 mm^3). According to NCI standards, a T/C≤42% is the minimum level of anti-tumor activity. A T/C<10% is considered a high anti-tumor activity level.
Female athymic nude mice were each inoculated with 1×10^7 EOL-1 cells, a human AML cell line, in 100 μl serum free medium subcutaneously in the right flank. […]

[6] = target: CD33 (Homo sapiens, UniProt P20138); details: CD33 on the surface of CD33-positive cells; cited from earlier work
Chain of CD33 (P20138 18-364): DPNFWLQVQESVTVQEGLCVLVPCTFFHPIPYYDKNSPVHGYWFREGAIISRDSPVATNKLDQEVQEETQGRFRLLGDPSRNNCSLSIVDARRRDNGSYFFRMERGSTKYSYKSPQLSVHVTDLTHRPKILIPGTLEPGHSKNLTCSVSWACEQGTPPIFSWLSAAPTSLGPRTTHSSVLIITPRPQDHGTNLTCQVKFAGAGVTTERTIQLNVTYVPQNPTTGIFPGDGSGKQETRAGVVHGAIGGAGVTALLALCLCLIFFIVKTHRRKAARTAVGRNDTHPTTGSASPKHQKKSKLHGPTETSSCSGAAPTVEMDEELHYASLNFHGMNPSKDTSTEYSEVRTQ

Compound | Median Survival Time ([1]; NOD SCID mice) | % Increased Life Span (ILS) [1] | Result [1] | Tumor Growth Delay (T-C, Days) [1] | Median Survival Time ([2]; NOD SCID mice) | % Increased Life Span (ILS) [2] | Result [2] | Tumor Growth Delay (T-C, Days) [2] | CD33 transcription and cell surface expression [3] | CD33 transcription and cell surface expression [4] | Tumor Free Survivors (Day 90) [5] | binding affinity to CD33 [6]
Nc1ccn([C@@H]2O[C@H](CO)[C@@H](O)[C@@H]2O)c(=O)n1 [Cytarabine, cytosine arabinoside] | 46 days | 0% | Inactive | 0 days | 20 days | 0% | Inactive | 0 days | dose- and time-dependent increase | dose- and time-dependent increase | 0/6 | 
My9-6: murine anti-CD33 antibody from which huMy9-6 is derived |  |  |  |  |  |  |  |  |  |  |  | high affinity
